From ChEMBL document CHEMBL1201861, “Genomics of Drug Sensitity in Cancer screening data, Wellcome Trust Sanger Institute”

Assays:
Experiment in all cases: cells
[1] = system: GOTO; format: functional, cell-based, Homo sapiens; settings: Homo sapiens, GOTO;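 further: growth inhibition of GOTO cells, read out by a cell viability assay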
Description: SANGER: Inhibition of human GOTO cell growth in a cell viability assay.

[2] = system: MV4-11; format: functional, cell-based, Homo sapiens, MV-4-11; settings: Homo sapiens, MV4-11;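 further: cell viability readout measuring growth inhibition of human MV-4-11 cells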
Description: SANGER: Inhibition of human MV-4-11 cell growth in a cell viability assay.

[3] = system: ATN-1; format: functional, cell-based, Homo sapiens; settings: Homo sapiens, ATN-1;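 further: growth inhibition of human ATN-1 cells, read out with a cell viability assay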
Description: SANGER: Inhibition of human ATN-1 cell growth in a cell viability assay.

[4] = system: EW-3; format: functional, cell-based, Homo sapiens; settings: Homo sapiens, EW-3;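 further: cell viability assay read-out, IC50 reflects inhibition of growth of the EW-3 cells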
Description: SANGER: Inhibition of human EW-3 cell growth in a cell viability assay.

[5] = system: MOLT-4; format: functional, cell-based, Homo sapiens; settings: Homo sapiens, MOLT-4;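 further: growth inhibition of MOLT-4 cells, determined with a cell viability readout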
Description: SANGER: Inhibition of human MOLT-4 cell growth in a cell viability assay.

[6] = system: MFM-223; format: functional, cell-based, Homo sapiens; settings: Homo sapiens, MFM-223
Description: SANGER: Inhibition of human MFM-223 cell growth in a cell viability assay.

[7] = system: SW684; format: functional, cell-based, Homo sapiens; settings: Homo sapiens, SW684; read-out: IC50;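 further: growth inhibition of human SW684 cells, measured by a cell viability assay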
Description: SANGER: Inhibition of human SW684 cell growth in a cell viability assay.

[8] = system: NCI-H1648; format: functional, cell-based, Homo sapiens; settings: Homo sapiens, NCI-H1648;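 further: cell viability assay measuring inhibition of NCI-H1648 cell growth, from the Sanger screening data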
Description: SANGER: Inhibition of human NCI-H1648 cell growth in a cell viability assay.

[9] = system: OS-RC-2; format: functional, cell-based, Homo sapiens; settings: Homo sapiens, OS-RC-2;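 further: growth inhibition of human OS-RC-2 cells, measured by a cell viability assay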
Description: SANGER: Inhibition of human OS-RC-2 cell growth in a cell viability assay.

[10] = system: LU-139; format: functional, cell-based, Homo sapiens; settings: Homo sapiens, LU-139
Description: SANGER: Inhibition of human LU-139 cell growth in a cell viability assay.

[11] = system: HCC2218; format: functional, cell-based, Homo sapiens; settings: Homo sapiens, HCC2218;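 further: cell viability assay read-out, with IC50 given as the concentration that inhibits growth of the cell line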
Description: SANGER: Inhibition of human HCC2218 cell growth in a cell viability assay.

[12] = system: HEL; format: functional, cell-based, Homo sapiens; settings: Homo sapiens, HEL;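 further: growth inhibition of HEL cells, read out with a cell viability assay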
Description: SANGER: Inhibition of human HEL cell growth in a cell viability assay.

[13] = system: NCI-H720; format: functional, cell-based, Homo sapiens; settings: Homo sapiens, NCI-H720;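 further: growth inhibition of human NCI-H720 cells determined by a cell viability assay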
Description: SANGER: Inhibition of human NCI-H720 cell growth in a cell viability assay.

[14] = system: NB69; format: functional, cell-based, Homo sapiens; settings: Homo sapiens, NB69;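 further: growth inhibition of NB69 cells, determined by a cell viability assay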
Description: SANGER: Inhibition of human NB69 cell growth in a cell viability assay.

[15] = system: Mo; format: functional, cell-based, Homo sapiens; settings: Homo sapiens, Mo
Description: SANGER: Inhibition of human Mo-T cell growth in a cell viability assay.

[16] = system: ES5; format: functional, cell-based, Homo sapiens; settings: Homo sapiens, ES5;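 further: growth inhibition of human ES5 cells, read out by a cell viability assay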
Description: SANGER: Inhibition of human ES5 cell growth in a cell viability assay.

[17] = system: BB49-HNC; format: functional, cell-based, Homo sapiens; settings: Homo sapiens, BB49-HNC;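 further: cell viability assay read-out, reported as inhibition of BB49-HNC cell growth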
Description: SANGER: Inhibition of human BB49-HNC cell growth in a cell viability assay.

[18] = system: A704; format: functional, cell-based; settings: Homo sapiens;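 further: growth inhibition of human A704 cells, read out with a cell viability assay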
Description: SANGER: Inhibition of human A704 cell growth in a cell viability assay.

[19] = system: SK-NEP-1; format: functional, cell-based, Homo sapiens; settings: Homo sapiens, SK-NEP-1;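 further: growth inhibition of human SK-NEP-1 cells, read out by a cell viability assay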
Description: SANGER: Inhibition of human SK-NEP-1 cell growth in a cell viability assay.

[20] = system: NH-12; format: functional, cell-based, Homo sapiens; settings: Homo sapiens, NH-12;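 further: growth inhibition of NH-12 cells, read out with a cell viability assay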
Description: SANGER: Inhibition of human NH-12 cell growth in a cell viability assay.

[21] = system: 697; format: functional, cell-based, Homo sapiens; settings: Homo sapiens
Description: SANGER: Inhibition of human 697 cell growth in a cell viability assay.

[22] = system: DU-4475; format: functional, cell-based, Homo sapiens; settings: Homo sapiens, DU-4475
Description: SANGER: Inhibition of human DU-4475 cell growth in a cell viability assay.

[23] = system: NCI-H1770; format: functional, cell-based, Homo sapiens; settings: Homo sapiens, NCI-H1770;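 further: growth inhibition of NCI-H1770 cells determined with a viability readout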
Description: SANGER: Inhibition of human NCI-H1770 cell growth in a cell viability assay.

[24] = system: NCI-H1299; format: functional, cell-based; settings: Homo sapiens;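 further: growth inhibition of human NCI-H1299 cells, read out by a cell viability assay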
Description: SANGER: Inhibition of human NCI-H1299 cell growth in a cell viability assay.

[25] = system: TK-10; format: functional, cell-based, Homo sapiens; settings: Homo sapiens, TK-10;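 further: growth inhibition of TK-10 cells, read out in a cell viability assay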
Description: SANGER: Inhibition of human TK10 cell growth in a cell viability assay.

[26] = system: NB13; format: functional, cell-based, Homo sapiens; settings: Homo sapiens, NB13;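 further: cell viability readout measuring growth inhibition of human NB13 cells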
Description: SANGER: Inhibition of human NB13 cell growth in a cell viability assay.

[27] = system: ES7; format: functional, cell-based, Homo sapiens; settings: Homo sapiens, ES7;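 further: growth inhibition of cultured human ES7 cells, read out as cell viability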
Description: SANGER: Inhibition of human ES7 cell growth in a cell viability assay.

[28] = system: IST-MES1; format: functional, cell-based, Homo sapiens; settings: Homo sapiens, IST-MES1;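 further: growth inhibition of IST-MES1 cells, measured with a cell viability assay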
Description: SANGER: Inhibition of human IST-MES1 cell growth in a cell viability assay.

[29] = system: NCI-H1304; format: functional, cell-based, Homo sapiens; settings: Homo sapiens, NCI-H1304;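 further: growth inhibition of the cancer cell line, measured in a cell viability assay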
Description: SANGER: Inhibition of human NCI-H1304 cell growth in a cell viability assay.

[30] = system: COLO-829; format: functional, cell-based, Homo sapiens; settings: Homo sapiens, COLO-829
Description: SANGER: Inhibition of human COLO-829 cell growth in a cell viability assay.

[31] = system: SF-126; format: functional, cell-based, Homo sapiens; settings: Homo sapiens, SF-126;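 further: growth inhibition of human SF126 cells, read out with a cell viability assay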
Description: SANGER: Inhibition of human SF126 cell growth in a cell viability assay.

[32] = system: K562; format: functional, cell-based, Homo sapiens; settings: Homo sapiens, K562
Description: SANGER: Inhibition of human K-562 cell growth in a cell viability assay.

[33] = system: SK-PN-DW; format: functional, cell-based, Homo sapiens; settings: Homo sapiens, SK-PN-DW;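 further: growth inhibition measured with a viability assay on these cells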
Description: SANGER: Inhibition of human SK-PN-DW cell growth in a cell viability assay.

[34] = system: SF-539; format: functional, cell-based, Homo sapiens; settings: Homo sapiens, SF-539;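 further: Read-out is a cell viability assay, with IC50 reflecting inhibition of cell growth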
Description: SANGER: Inhibition of human SF539 cell growth in a cell viability assay.

[35] = system: NOS-1; format: functional, cell-based, Homo sapiens; settings: Homo sapiens, NOS-1;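 further: growth inhibition of the human NOS-1 cell line, read out with a cell viability assay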
Description: SANGER: Inhibition of human NOS-1 cell growth in a cell viability assay.

[36] = system: NB10; format: functional, cell-based, Homo sapiens; settings: Homo sapiens, NB10;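 further: growth inhibition of NB10 cells, read out by a cell viability assay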
Description: SANGER: Inhibition of human NB10 cell growth in a cell viability assay.

[37] = system: SK-MEL-2; format: functional, cell-based, Homo sapiens; settings: Homo sapiens, SK-MEL-2;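 further: growth inhibition of human SK-MEL-2 cells measured with a cell viability assay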
Description: SANGER: Inhibition of human SK-MEL-2 cell growth in a cell viability assay.

[38] = system: TE-6; format: functional, cell-based, Homo sapiens; settings: Homo sapiens, TE-6;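 further: growth inhibition of TE-6 cells, read out with a cell viability assay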
Description: SANGER: Inhibition of human TE-6 cell growth in a cell viability assay.

[39] = system: MPP-89; format: functional, cell-based, Homo sapiens; settings: Homo sapiens, MPP-89;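 further: growth inhibition of human MPP-89 cells, read out with a cell viability assay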
Description: SANGER: Inhibition of human MPP-89 cell growth in a cell viability assay.

[40] = system: ES6; format: functional, cell-based; settings: Homo sapiens;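 further: growth inhibition of human ES6 cells, read out with a cell viability assay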
Description: SANGER: Inhibition of human ES6 cell growth in a cell viability assay.

[41] = system: CGTH-W-1; format: functional, cell-based, Homo sapiens; settings: Homo sapiens, CGTH-W-1;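 further: growth inhibition of human CGTH-W-1 cells measured by cell viability assay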
Description: SANGER: Inhibition of human CGTH-W-1 cell growth in a cell viability assay.

[42] = system: D-263MG; format: functional, cell-based, Homo sapiens; settings: Homo sapiens, D-263MG
Description: SANGER: Inhibition of human D-263MG cell growth in a cell viability assay.

[43] = system: TE-12; format: functional, cell-based, Homo sapiens; settings: Homo sapiens, TE-12;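 further: growth inhibition of TE-12 cells, read out by a cell viability assay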
Description: SANGER: Inhibition of human TE-12 cell growth in a cell viability assay.

[44] = system: TE-1; format: functional, cell-based, Homo sapiens; settings: Homo sapiens, TE-1;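 further: growth inhibition of the human TE-1 cell line, read out with a cell viability assay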
Description: SANGER: Inhibition of human TE-1 cell growth in a cell viability assay.

[45] = system: SK-LMS-1; format: functional, cell-based, Homo sapiens; settings: Homo sapiens, SK-LMS-1;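 further: growth inhibition of human SK-LMS-1 cells, read out with a cell viability assay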
Description: SANGER: Inhibition of human SK-LMS-1 cell growth in a cell viability assay.

[46] = system: LS-1034; format: functional, cell-based, Homo sapiens; settings: Homo sapiens, LS-1034
Description: SANGER: Inhibition of human LS-1034 cell growth in a cell viability assay.

[47] = system: KS-1; format: functional, cell-based; settings: Homo sapiens;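 further: growth inhibition of KS-1 cells, read out with a cell viability assay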
Description: SANGER: Inhibition of human KS-1 cell growth in a cell viability assay.

[48] = system: L-363; format: functional, cell-based, Homo sapiens; settings: Homo sapiens, L-363
Description: SANGER: Inhibition of human L-363 cell growth in a cell viability assay.

[49] = system: NCI-H1838; format: functional, cell-based, Homo sapiens; settings: Homo sapiens, NCI-H1838;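 further: growth inhibition of NCI-H1838 cells, determined with a cell viability readout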
Description: SANGER: Inhibition of human NCI-H1838 cell growth in a cell viability assay.

[50] = system: L-428; format: functional, cell-based, Homo sapiens; settings: Homo sapiens, L-428
Description: SANGER: Inhibition of human L-428 cell growth in a cell viability assay.

Structure (SMILES): COc1ccc(-c2cc3nccn3c(Nc3ncccc3C(N)=O)n2)cc1OC
- IC50 [1]: 3.42 µM
- IC50 [2]: < 31.2 nM
- IC50 [3]: > 8 µM
- IC50 [4]: 4.93 µM
- IC50 [5]: 5.81 µM
- IC50 [6]: > 8 µM
- IC50 [7]: > 8 µM
- IC50 [8]: > 8 µM
- IC50 [9]: 1170 nM
- IC50 [10]: > 8 µM
- IC50 [11]: > 8 µM
- IC50 [12]: 1350 nM
- IC50 [13]: > 8 µM
- IC50 [14]: > 8 µM
- IC50 [15]: 4.96 µM
- IC50 [16]: > 8 µM
- IC50 [17]: 3.3 µM
- IC50 [18]: > 8 µM
- IC50 [19]: 4.53 µM
- IC50 [20]: 2490 nM
- IC50 [21]: 582 nM
- IC50 [22]: 2170 nM
- IC50 [23]: 2610 nM
- IC50 [24]: > 8 µM
- IC50 [25]: 6.96 µM
- IC50 [26]: 3.24 µM
- IC50 [27]: 1090 nM
- IC50 [28]: > 8 µM
- IC50 [29]: > 8 µM
- IC50 [30]: > 8 µM
- IC50 [31]: > 8 µM
- IC50 [32]: > 8 µM
- IC50 [33]: 5.37 µM
- IC50 [34]: > 8 µM
- IC50 [35]: 481 nM
- IC50 [36]: 5.3 µM
- IC50 [37]: 1890 nM
- IC50 [38]: 6.97 µM
- IC50 [39]: 1670 nM
- IC50 [40]: 1240 nM
- IC50 [41]: 3.37 µM
- IC50 [42]: > 8 µM
- IC50 [43]: 531 nM
- IC50 [44]: > 8 µM
- IC50 [45]: > 8 µM
- IC50 [46]: > 8 µM
- IC50 [47]: 2780 nM
- IC50 [48]: 2930 nM
- IC50 [49]: > 8 µM
- IC50 [50]: > 8 µM

Structure (SMILES): COC(=O)[C@H](CCSC)NC(=O)c1ccc(NC[C@@H](N)CS)cc1-c1ccccc1
- IC50 [1]: > 1.02 µM
- IC50 [2]: > 1020 nM
- IC50 [3]: > 1.02 µM
- IC50 [4]: > 1.02 µM
- IC50 [5]: > 1.02 µM
- IC50 [6]: > 1.02 µM
- IC50 [7]: > 1.02 µM
- IC50 [8]: > 1.02 µM
- IC50 [9]: > 1020 nM
- IC50 [10]: > 1.02 µM
- IC50 [11]: > 1.02 µM
- IC50 [12]: > 1020 nM
- IC50 [13]: > 1.02 µM
- IC50 [14]: > 1.02 µM
- IC50 [15]: > 1.02 µM
- IC50 [16]: > 1.02 µM
- IC50 [17]: > 1.02 µM
- IC50 [18]: > 1.02 µM
- IC50 [19]: > 1.02 µM
- IC50 [20]: > 1020 nM
- IC50 [21]: > 1020 nM
- IC50 [22]: > 1020 nM
- IC50 [23]: > 1020 nM
- IC50 [24]: > 1.02 µM
- IC50 [25]: > 1.02 µM
- IC50 [26]: > 1.02 µM
- IC50 [27]: > 1020 nM
- IC50 [28]: > 1.02 µM
- IC50 [29]: > 1.02 µM
- IC50 [30]: > 1.02 µM
- IC50 [31]: > 1.02 µM
- IC50 [32]: > 1.02 µM
- IC50 [33]: > 1.02 µM
- IC50 [34]: > 1.02 µM
- IC50 [35]: > 1020 nM
- IC50 [36]: > 1.02 µM
- IC50 [37]: > 1020 nM
- IC50 [38]: > 1.02 µM
- IC50 [39]: > 1020 nM
- IC50 [40]: > 1020 nM
- IC50 [41]: > 1.02 µM
- IC50 [42]: > 1.02 µM
- IC50 [43]: > 1020 nM
- IC50 [44]: > 1.02 µM
- IC50 [45]: > 1.02 µM
- IC50 [46]: > 1.02 µM
- IC50 [47]: > 1020 nM
- IC50 [48]: > 1020 nM
- IC50 [49]: > 1.02 µM
- IC50 [50]: > 1.02 µM
